{
  "source": "patent US20260283996A1",
  "about": "“DECANOIC ACID AND ITS COMPOSITIONS FOR USE IN THE PREVENTION AND/OR TREATMENT OF PEROXISOMAL DISORDERS” (SOCIÉTÉ DES PRODUITS NESTLÉ S.A., priority 2023, published 2026)",
  "format_in_all_cases": "cell-based",
  "key": {"acyl CoA oxidase": {"system": "acyl CoA oxidase", "test": "acyl CoA oxidase activity in SH-SY5Y cells", "conditions": "250 μM, 6 days (FIG. 1A)", "procedure": "(§1) SH-SY5Y cells were stored frozen and cells with passage numbers between 20 and 24 were utilized. When required, SH-SY5Y cells were thawed at 20-25° C. and quickly seeded at a density of 13.3×10^3 cell/cm^2 in 75 cm^2 flasks. SH-SY5Y cells were then grown in media containing 1:1 DMEM/F-12+100 mL/L FBS+10 mL/L I-glutamine at +37° C. and 5% CO2. SH-SY5Y cells were exposed to 250 μM decanoic acid (C10) or octanoic acid (C8) for 6 days.\n(§2) To assess effects upon peroxisomal content and function, the following parameters were studied; (a) activity of the peroxisomal marker enzyme, acyl CoA oxidase, (b) expression of Pex11a, a gene associated with peroxisomal biogenesis and (c) evaluation of peroxisomal fatty acid beta oxidation by monitoring the chain shortening of a very long chain fatty acid, C22, to C18, C16 and C14."}, "Pex11a": {"system": "Pex11a", "test": "expression of Pex11a in SH-SY5Y cells", "conditions": "250 μM, 6 days (FIG. 1B)", "procedure": "as §1, §2"}, "SH-SY5Y cells": {"system": "SH-SY5Y cells", "test": "peroxisomal fatty acid beta oxidation (chain shortening of C22 to C18, C16 and C14) in SH-SY5Y cells", "conditions": "250 μM, 6 days, chain shortening of C22 to C18, C16 and C14 (FIG. 1C)", "procedure": "as §1, §2"}},
  "data": [
    {"smiles": "CCCCCCCCCC(=O)O", "note": "[C10, Decanoic acid]", "values": [
      {"measurement": "acyl CoA oxidase activity", "setting": "acyl CoA oxidase", "result": "increase in acyl CoA oxidase activity"},
      {"measurement": "Pex11a expression", "setting": "Pex11a", "result": "increased Pex11a"},
      {"measurement": "capacity to perform peroxisomal beta oxidation", "setting": "SH-SY5Y cells", "result": "increased capacity to perform peroxisomal beta oxidation"}
    ]}
  ]
}
